Measured values as given in patent US20030211076A1, “Compositions and methods for treatment of proliferative disorders” (priority 2003, published 2003).

Tests used:
[1] = tested on: intracellular FGF2 in NIH 3T3 6-1 cells; test: Intracellular FGF2 crosslinking by LO, Western blotting with monoclonal anti-FGF2; format: cell-based, mouse
Method: The possibility that exposure of cells to LO alters the physical state of intracellular FGF2 was assessed by Western blotting with monoclonal anti-FGF2 of cell lysates. Subconfluent NIH 3T3 and NIH 3T3 6-1 cells were incubated for 20 h in 0.3% FBS/DMEM with or without additives as indicated below. Cells were suspended by trypsin treatment and lysed. Aliquots of lysates containing 50 μg of cell protein were analyzed by Western blotting of SDS-PAGE electrophoretograms probing with monoclonal anti-FGF2 (FIGS. 11A and 11B). Total protein was visualized by Coomassie blue staining of SDS-PAGE electrophoretograms (FIG. 11C). FIG. 11A represents FGF2 expression in NIH 3T3 (lane 1) and NIH 3T3 6-1 cells (lane 2). FIG. 11B represents forms of intracellular FGF2 in NIH 3T3 6-1 cells incubated in the absence (lane 1) or presence of 25 nM LO (lane 2) or presence of 25 nM LO which had been preincubated with 100 μM BAPN for 15 min at 37° C. (lane 3). FIG. 11C represents the total protein profiles in control and LO-treated cells with treatments in each lane corresponding to those in FIG. 11B.

[2] = tested on: transformed NIH 3T3 6-1 cells overexpressing FGF2; test: LO inhibition of tumor cell growth (cell counting, phase-contrast and fluorescent microscopy); format: cell-based, mouse
Method: Transformed NIH 3T3 6-1 cells (2×10^4) overexpressing FGF2 were plated and incubated overnight in 35 mm-dishes containing 2 ml 10% fetal bovine serum (FBS)/Dulbecco's Modified Eagle's (DME) medium, and then refed with 0.3% FBS/DMEM with different treatment regimens as shown in FIGS. 9A and 9B. FIG. 9A represents a dose response. Cells were treated with LO at various doses for a total of 6 days. Cultures were refed with fresh media supplemented with LO, as indicated, every two days. After treatment, cells were harvested by trypsinization and counted with a hemacytometer. FIG. 9B represents the effects of inactivation of LO by BAPN on tumor cell growth. LO was present at 25 nM and BAPN at 200 μM as indicated. Data represent the means (±sd) of three separate experiments each assessed with triplicate dishes.
Numerical and morphological alterations in tumor cells treated with LO were observed under phase-contrast microscopy (25×). FIG. 10 comprises the following: A, control; B, 25 nM LO; C, 25 nM LO+200 μM BAPN; D, 200 μM BAPN alone; and E and F, LO uptake by NIH3T3 6-1 cells. In E and F, cells grown on coverslips were exposed to FITC-conjugated LO (0.16 μg/ml) for 2 h, then fixed and examined by fluorescent microscopy (100×).

[3] = tested on: FGF2 nuclear localization in Swiss 3T3 cells; test: FGF2 nuclear localization, immunochemical staining; format: cell-based
Method: After endocytosis, a fraction of exogenous FGF2 can enter the nucleus of a variety of cell types in a cell cycle-dependent manner (Mason; Rifkin et al.; Prats et al.; Stachowiak et al., 1996; Arese et al.; Baldin et al.). Thus, the possibility that oxidation of FGF2 by LO affects the nuclear localization of this growth factor was tested by using immunochemistry. In FIGS. […]

[4] = tested on: VEC on Matrigel; test: Angiogenic response of Tat-stimulated VEC on Matrigel; format: cell-based
Method: VEC grown on Matrigel, a solid gel of basement membrane proteins, rapidly align and form capillary-like structures providing a convenient in vitro model for angiogenesis studies (Albini et al., 1995; Grant et al.). Tat has been reported to enhance this in vitro morphogenesis of VEC consistent with its angiogenic property (Albini et al., 1995).
Cells (3×10^5) were plated on Matrigel-coated dishes. After 1 h incubation, various reagents were added to each culture. […] The following represents FIG. 15 phase-contrast microscopy: A, control; B, 10 ng ml^−1 Tat; C, 10 ng ml^−1 Tat+10 nM LO; D, 10 ng ml^−1 Tat+10 nM LO that was preincubated with 100 μM BAPN for 15 min at 370; E, 100 μM BAPN, alone, and F, 10 nM LO, alone.

[5] = tested on: VEC on Matrigel; test: Time course of angiogenic response of VEC on Matrigel without Tat stimulation; format: cell-based; details: 6, 24 and 48 h
Method: Time course studies on inhibition by LO of angiogenic response of VEC on Matrigel without Tat stimulation was also investigated. Cells (3×10^5) were plated on Matrigel-coated dishes. After 1 h incubation, various reagents were added to each culture. […] At each time point, a, control; b,10 nM LO; c,10 nM LO that was preincubated with 100 μM BAPN for 15 min at 37°; d, 100 μM BAPN, alone.

[6] = tested on: human recombinant FGF2 (18 kDa); test: LO-catalyzed crosslinking of 125I-labeled FGF2, SDS-PAGE and autoradiography; format: biochemical; details: 5 μg 125I-FGF2 with 4 μg LO, 37° C., 1 h
Method: To determine crosslinking of FGF2 monomers as a result of its oxidation by LO, human recombinant FGF2 (18 kDa) was iodinated and ^1251-labeled FGF2 (5 μg) and was then incubated with 4 μg of LO in 0.1 M sodium borate buffer, pH 8.2 in a final volume of 100 μl, at 37° C. for 1 h. The reaction was quenched by the addition of 100 μM BAPN followed by incubation at 37° C. for 30 min. Aliquots of the incubated reaction mixtures were analyzed by SDS-PAGE (15%) and autoradiography. Lane 1 represents [^125]FGF2; lane 2 represents [^1251]FGF2+LO. The relative electrophoretic mobilities of pre-stained molecular weight standards are indicated under MW.

Row | Compound | effect on LO-induced FGF2 oligomer formation ([1]; 25 nM LO preincubated with 100 μM BAPN for 15 min at 37° C.) | proliferation relative to the control ([2]; 200 μM BAPN added with 25 nM LO, 6 days) [fold] | tumor cell growth relative to the control ([2]; 200 μM BAPN in the absence of added LO, 6 days) [fold] | effect on LO inhibition of nuclear translocation of FGF2 ([3]; 100 μM BAPN with LO and FGF2) | FGF2 transport to the nucleolus ([3]; BAPN in the absence of added LO) | effect on LO-mediated inhibition of the angiogenic response ([4]; 10 nM LO preincubated with 100 μM BAPN for 15 min) | organization of VEC to form capillary-like structure ([5]; 100 μM BAPN alone) | crosslinking of FGF2 monomers [6] | forms of intracellular FGF2 ([1]; 25 nM LO, 20 h) | decrease of cell number compared to the control (maximal inhibition) ([2]; 25 nM LO, 6 days, 0.3% FBS/DMEM) [%] | numerical and morphological alterations in tumor cells ([2]; 25 nM LO, phase-contrast microscopy) | levels of nuclear FGF2 ([3]; LO in the absence of exogenous FGF2 or BAPN) | intranuclear FGF2 ([3]; simultaneously incubated with FGF2 and 10 nM LO) | Tat-stimulated morphogenesis of VEC ([4]; 10 ng/ml Tat + 10 nM LO) | organization of VEC to form capillary-like structure ([5]; 10 nM LO preincubated with 100 μM BAPN (BAPN-inactivated)) | organization of VEC to form capillary-like structure ([5]; 10 nM active LO)
1 | N#CCCN [BAPN, β-Aminopropionitrile, reference compound] | prevented | 3 | 2.5 | prevented | increased FGF2 transport to the nucleolus | not prevented | did not have significant effects |  |  |  |  |  |  |  |  | 
2 | lysyl oxidase [LO] |  |  |  |  |  |  |  | induced the appearance of covalent dimers, oligomers and higher polymers | induced the formation of crosslinked dimers and oligomers of FGF2 within the cells | 95 | induced cell death | reduced levels of nuclear FGF2 | did not exhibit enhanced levels of intranuclear FGF2 | effectively blocked | strong inhibitory effects | strong inhibitory effects
